Common to all, as to assay type: in vivo
Test [1] has as its system soybean (Glycine max var. Winchester). Kind of test: Preemergence herbicidal activity, soybean. As to conditions: Rate of Application 0.3 Kg/Ha, examined after 12-17 days.
Test [2] concerns wheat (Triticum aestivum var. Lew). Kind of test: Preemergence herbicidal activity, wheat. Conditions: Rate of Application 0.3 Kg/Ha, examined after 12-17 days.
Test [3] concerns field corn (Zea mays var. Pioneer 3732). Kind of test: Preemergence herbicidal activity, corn. As to conditions: Rate of Application 0.3 Kg/Ha, examined after 12-17 days.
The test system of test [4] is velvetleaf (Abutilon theophrasti). In words: Preemergence herbicidal activity, velvetleaf. Conditions: Rate of Application 0.3 Kg/Ha, examined after 12-17 days.
The subject of test [5] is morningglory (Ipomea lacunosa or Ipomea hederacea). Kind of test: Preemergence herbicidal activity, morningglory. Conditions: Rate of Application 0.3 Kg/Ha, examined after 12-17 days.
Test [6] deals with common chickweed (Stellaria media). Kind of test: Preemergence herbicidal activity, chickweed. Conditions: Rate of Application 0.3 Kg/Ha, examined after 12-17 days.
For test [7], the system named is common cocklebur (Xanthium strumarium L.). Kind of test: Preemergence herbicidal activity, cocklebur. As to conditions: Rate of Application 0.3 Kg/Ha, examined after 12-17 days.
The subject of test [8] is blackgrass (Aloepecurus myosuroides). Kind of test: Preemergence herbicidal activity, blackgrass. Conditions: Rate of Application 0.3 Kg/Ha, examined after 12-17 days.
For test [9], the system named is green foxtail (Setaria viridis). Kind of test: Preemergence herbicidal activity, green foxtail. As to conditions: Rate of Application 0.3 Kg/Ha, examined after 12-17 days.
Test [10] relates to Johnsongrass (Sorghum halepense). Kind of test: Preemergence herbicidal activity, johnsongrass. Conditions: Rate of Application 0.3 Kg/Ha, examined after 12-17 days.
Test [11] deals with soybean (Glycine max var. Winchester). In words: Postemergence herbicidal activity, soybean. As to conditions: rate of application 0.3 Kg/Ha, rated after 12-17 days.
The subject of test [12] is wheat (Triticum aestivum var. Lew). In words: Postemergence herbicidal activity, wheat. As to conditions: rate of application 0.3 Kg/Ha, rated after 12-17 days.
For test [13], the system named is field corn (Zea mays var. Pioneer 3732). In words: Postemergence herbicidal activity, corn. Conditions: rate of application 0.3 Kg/Ha, rated after 12-17 days.
The test system of test [14] is velvetleaf (Abutilon theophrasti). In words: Postemergence herbicidal activity, velvetleaf. Conditions: rate of application 0.3 Kg/Ha, rated after 12-17 days.
Test [15] has as its system morningglory (Ipomea lacunosa or Ipomea hederacea). In words: Postemergence herbicidal activity, morningglory. Conditions: rate of application 0.3 Kg/Ha, rated after 12-17 days.
In test [16] the test system is common cocklebur (Xanthium strumarium L.). Kind of test: Postemergence herbicidal activity, cocklebur. As to conditions: rate of application 0.3 Kg/Ha, rated after 12-17 days.
Test [17] relates to blackgrass (Aloepecurus myosuroides). Kind of test: Postemergence herbicidal activity, blackgrass. Conditions: rate of application 0.3 Kg/Ha, rated after 12-17 days. Here is the method: The benzofused heterocyclic compounds of this invention were tested for pre- and postemergence herbicidal activity using a variety of crops and weeds. The test plants included soybean (Glycine max var. Winchester), field corn (Zea mays var. Pioneer 3732), wheat (Triticum aestivum var. Lew), morningglory (Ipomea lacunosa or Ipomea hederacea), velvetleaf (Abutilon theophrasti), green foxtail (Setaria viridis), Johnsongrass (Sorghum halepense), blackgrass (Aloepecurus myosuroides), common chickweed (Stellaria media), and common cocklebur (Xanthium strumarium L.).
For preemergence testing, two disposable fiber flats (8 cm×15 cm×25 cm) for each rate of application of each candidate herbicide were filled to an approximate depth of 6.5 cm with steam-sterilized sandy loam soil. The soil was leveled and impressed with a template to provide five evenly spaced furrows 13 cm long and 0.5 cm deep in each flat. Seeds of soybean, wheat, corn, green foxtail, and johnsongrass were planted in the furrows of the first flat, and seeds of velvetleaf, morningglory, common chickweed, cocklebur, and blackgrass were planted in the furrows of the second flat. The five-row template was employed to firmly press the seeds into place. A topping soil of equal portions of sand and sandy loam soil was placed uniformly on top of each flat to a depth of approximately 0.5 cm. Flats for postemergence testing were prepared in the same manner except that they were planted 9-14 days prior to the preemergence flats and were placed in a greenhouse and watered, thus allowing the seeds to germinate and the foliage to develop.
In both pre- and postemergence tests, a stock solution of the candidate herbicide was prepared by dissolving 0.27 g of the compound in 20 mL of water/acetone (50/50) containing 0.5% v/v sorbitan monolaurate. For an application rate of 3000 g/ha of herbicide a 10 mL portion of the stock solution was diluted with water/acetone (50/50) to 45 mL.
The preemergence flats were initially subjected to a light water spray. The four flats were placed two by two along a conveyor belt (i.e., the two preemergence followed by the two postemergence flats). The conveyor belt fed under a spray nozzle mounted about ten inches above the post-emergent foliage. The preemergent flats were elevated on the belt so that the soil surface was at the same level below the spray nozzle as the foliage canopy of the postemergent plants. The spray of herbicidal solution was commenced and once stabilized, the flats were passed under the spray at a speed to receive a coverage equivalent of 100 L/ha. At this coverage the application rates are those shown in the above table for the individual herbicidal solutions. The preemergence flats were watered immediately thereafter, placed in the greenhouse and watered regularly at the soil surface. The postemergence flats were immediately placed in the green-house and not watered until 24 hours after treatment with the test solution. Thereafter they were regularly watered at ground level. After 12-17 days the plants were examined and the phytotoxicity data were recorded.
Phytotoxicity data were taken as percent control. Percent control was determined by a method similar to the 0 to 100 rating system disclosed in “Research Methods in Weed Science,” 2nd ed., B. Truelove, Ed.; Southern Weed Science Society; Auburn University, Auburn, Ala., 1977.

Test [18] deals with green foxtail (Setaria viridis). Kind of test: Postemergence herbicidal activity, green foxtail. Conditions: rate of application 0.3 Kg/Ha, rated after 12-17 days.
In test [19] the test system is Johnsongrass (Sorghum halepense). In words: Postemergence herbicidal activity, johnsongrass. As to conditions: rate of application 0.3 Kg/Ha, rated after 12-17 days.

Turning to `Cn1c(C(F)(F)F)cc(=O)n(-c2c(F)cc(Cl)c3oc(NS(C)(=O)=O)nc23)c1=O` [Compound 42], in test [1], the “PREEMERGENCE HERBICIDAL ACTIVITY (% CONTROL) SOY” value stood at 0%. In test [2], the “PREEMERGENCE HERBICIDAL ACTIVITY (% CONTROL) WHT” value is 10%. Also, the “PREEMERGENCE HERBICIDAL ACTIVITY (% CONTROL) CRN” value in test [3] is reported as 0%. The “PREEMERGENCE HERBICIDAL ACTIVITY (% CONTROL) ABUTH” value in test [4] was determined as 100%. The “PREEMERGENCE HERBICIDAL ACTIVITY (% CONTROL) IPOSS” value in test [5] is on record as 60%. The “PREEMERGENCE HERBICIDAL ACTIVITY (% CONTROL) STEME” value in [6] amounted to 30%. Moreover, in test [7], the “PREEMERGENCE HERBICIDAL ACTIVITY (% CONTROL) XANPE” value is recorded as 20%. In addition, the “PREEMERGENCE HERBICIDAL ACTIVITY (% CONTROL) ALOMY” value in test [8] came out at 50%. In addition, the “PREEMERGENCE HERBICIDAL ACTIVITY (% CONTROL) SETVI” value in [9] is on record as 30%. For the same compound, in [10], the “PREEMERGENCE HERBICIDAL ACTIVITY (% CONTROL) SORHA” value worked out at 0%. Also, in test [11], the “Postemergence herbicidal activity (% control) SOY” value is on record as 65%. Moreover, the “Postemergence herbicidal activity (% control) WHT” value in test [12] is recorded as 30%. In addition, in [13], the “Postemergence herbicidal activity (% control) CRN” value amounted to 60%. Besides, the “Postemergence herbicidal activity (% control) ABUTH” value in test [14] was 90%. Further, the “Postemergence herbicidal activity (% control) IPOSS” value in [15] is listed as 60%. The “Postemergence herbicidal activity (% control) XANPE” value in [16] stood at 50%. In addition, the “Postemergence herbicidal activity (% control) ALOMY” value in test [17] is on record as 40%. Moreover, the “Postemergence herbicidal activity (% control) SETVI” value in [18] is on record as 100%. Moreover, in test [19], the “Postemergence herbicidal activity (% control) SORHA” value came to 20%.
Regarding `Cn1c(C(F)(F)F)cc(=O)n(-c2c(F)cc(Cl)c3nc(Cc4cccc(Cl)c4)[nH]c23)c1=O` [Compound 382], in test [1], the “PREEMERGENCE HERBICIDAL ACTIVITY (% CONTROL) SOY” value turned out to be 60%. Also, the “PREEMERGENCE HERBICIDAL ACTIVITY (% CONTROL) WHT” value in test [2] came out at 45%. For the same compound, the “PREEMERGENCE HERBICIDAL ACTIVITY (% CONTROL) CRN” value in test [3] is on record as 30%. For the same compound, in test [4], the “PREEMERGENCE HERBICIDAL ACTIVITY (% CONTROL) ABUTH” value amounted to 100%. For the same compound, in [5], the “PREEMERGENCE HERBICIDAL ACTIVITY (% CONTROL) IPOSS” value is on record as 70%. Further, the “PREEMERGENCE HERBICIDAL ACTIVITY (% CONTROL) XANPE” value in [7] is recorded as 60%. The “PREEMERGENCE HERBICIDAL ACTIVITY (% CONTROL) ALOMY” value in test [8] is 90%. In test [9], the “PREEMERGENCE HERBICIDAL ACTIVITY (% CONTROL) SETVI” value is recorded as 95%. Moreover, the “PREEMERGENCE HERBICIDAL ACTIVITY (% CONTROL) SORHA” value in test [10] was 80%. Further, the “Postemergence herbicidal activity (% control) SOY” value in test [11] is 80%. Also, in test [12], the “Postemergence herbicidal activity (% control) WHT” value amounted to 40%. Besides, in test [13], the “Postemergence herbicidal activity (% control) CRN” value is reported as 100%. In test [14], the “Postemergence herbicidal activity (% control) ABUTH” value came to 100%. For the same compound, the “Postemergence herbicidal activity (% control) IPOSS” value in test [15] was 100%. In [16], the “Postemergence herbicidal activity (% control) XANPE” value was 100%. Also, the “Postemergence herbicidal activity (% control) ALOMY” value in test [17] is 80%. In addition, the “Postemergence herbicidal activity (% control) SETVI” value in [18] is given as 90%. The “Postemergence herbicidal activity (% control) SORHA” value in test [19] was found to be 80%.
`Cn1c(C(F)(F)F)cc(=O)n(-c2c(F)cc(Cl)c3nc(Cc4ccc(Cl)cc4)[nH]c23)c1=O` [Compound 383]: in test [1], the “PREEMERGENCE HERBICIDAL ACTIVITY (% CONTROL) SOY” value came to 80%. The “PREEMERGENCE HERBICIDAL ACTIVITY (% CONTROL) WHT” value in test [2] amounted to 40%. The “PREEMERGENCE HERBICIDAL ACTIVITY (% CONTROL) CRN” value in test [3] is given as 20%. Also, the “PREEMERGENCE HERBICIDAL ACTIVITY (% CONTROL) ABUTH” value in [4] was found to be 100%. In test [5], the “PREEMERGENCE HERBICIDAL ACTIVITY (% CONTROL) IPOSS” value is 60%. Also, the “PREEMERGENCE HERBICIDAL ACTIVITY (% CONTROL) XANPE” value in test [7] was 70%. Further, in test [8], the “PREEMERGENCE HERBICIDAL ACTIVITY (% CONTROL) ALOMY” value came out at 80%. Also, the “PREEMERGENCE HERBICIDAL ACTIVITY (% CONTROL) SETVI” value in test [9] came out at 75%. The “PREEMERGENCE HERBICIDAL ACTIVITY (% CONTROL) SORHA” value in test [10] stood at 55%. Also, the “Postemergence herbicidal activity (% control) SOY” value in [11] stood at 95%. The “Postemergence herbicidal activity (% control) WHT” value in [12] amounted to 40%. In addition, the “Postemergence herbicidal activity (% control) CRN” value in test [13] is 95%. In addition, the “Postemergence herbicidal activity (% control) ABUTH” value in [14] stood at 100%. In addition, the “Postemergence herbicidal activity (% control) IPOSS” value in test [15] was determined as 95%. Further, the “Postemergence herbicidal activity (% control) XANPE” value in test [16] is 100%. The “Postemergence herbicidal activity (% control) ALOMY” value in test [17] is listed as 60%. In addition, the “Postemergence herbicidal activity (% control) SETVI” value in test [18] was 95%. Also, in test [19], the “Postemergence herbicidal activity (% control) SORHA” value was 70%.
